US10058540B2, “2-amino-5,5-difluoro-6-(fluoromethyl)-6-phenyl-3,4,5,6-tetrahydropyridines as BACE1 inhibitors” (H. Lundbeck A/S, priority 2014, dated 2018)
pKi: −log10 of the molar value.

Key:
BACE1 [1] = molecular target: T1, BACE1 (Homo sapiens (Human), UniProt P56817); experiment: BACE1 binding assay (SPA-based, radioligand); conditions: pH 4.5, Ki=IC50/(1+L/Kd)
Method: The binding assay was performed as SPA-based assay using a biotinylated form of human BACE1 recombinantly expressed and subsequently purified from Freestyle HEK293 cells. The binding assay was run in a 50 mM sodium acetate buffer, pH 4.5 containing 50 mM NaCl and 0.03% Tween-20 in white clear bottom 384 plates (Corning #3653). 10 nM (final concentration) radioligand ([^3H]-N-((1S,2R)-1-benzyl-3-cyclopropylamino-2-hydroxy-propyl)-5-(methanesulfonyl-methyl-amino)-N-((R)-1-phenyl-ethyl)-isophthalamide) (TRQ11569 purchased from GE Healthcare) was mixed with test compound at a given concentration, 6 nM (final concentration) human BACE1 and 25 μg Streptavidin coated PVT core SPA beads (RPNQ0007, GE Healthcare Life Sciences) in a total volume of 40 μl. Several concentrations of each test compound were tested in the assay for IC50 determination. The plates were incubated for one hour at room temperature and counted in a Wallac Trilux counter. Total and non-specific binding were determined using buffer and 1 μM (final concentration) of the high affinity BACE1 reference inhibitor (S)-6-[3-chloro-5-(5-prop-1-ynyl-pyridin-3-yl)-thiophen-2-yl]-2-imino-3,6-dimethyl-tetrahydro-pyrimidin-4-one, respectively. For each test compound, a IC50 value (the concentration mediating 50% inhibition of the specific binding of the radioligand) was determined from concentration-response curve and used to calculate the Ki from the equation Ki=IC50/(1+L/Kd), where L and Kd are the final concentration of the radioligand used in the assay and the dissociation constant of the radioligand, respectively. The Kd of the radioligand was determined from saturation binding experiments.

BACE1 [2] = molecular target: T1, BACE1; experiment: BACE1 efficacy assay (FRET-based, commercial BACE1 kit); format: biochemical; conditions: 10 μM test compound
Method: The efficacy assay was performed as a FRET-based assay using a commercially available BACE1 kit (Life Technologies, P2985). 2 μl test compound at 10 μM (final concentration) and 15 μl BACE1 enzyme from the kit (final concentration 3 nM) were preincubated for 15 minutes at room temperature before addition of 15 μl of substrate from the kit (250 nM final concentration) and incubated for additional 90 minutes at room temperature. The assay plate was subsequently read in a Pherastar (Ex540/Em590). The enzyme activity observed in presence of test compound were normalized to the enzyme activity observed in presence of buffer and 10 μM (final concentration) of the high affinity BACE1 reference inhibitor (S)-6-[3-Chloro-5-(5-prop-1-ynyl-pyridin-3-yl)-thiophen-2-yl]-2-imino-3,6-dimethyl-tetra-hydropyrimidin-4-one, respectively. The efficacy of the test compounds was evaluated at 10 μM (final concentration) and defined as the percent inhibition of the enzyme activity using the equation % inhibition=100%−normalized enzyme activity in percent.

Aβ40 = experiment: Assessment of Aβ peptide levels in rat brain and plasma following BACE1 inhibition (Aβ40 ELISA); format: in vivo; conditions: 3 hours post dose, vs vehicle
Method: Assessment of Aβ Peptide Levels in Rat Brain and Plasma Following BACE1 Inhibition. Animals.
Young adult Male Sprague Dawley rats of approximately 250 g weight were purchased from Charles River and received 0-30 mg/kg of vehicle (10% HP betaCD+1M MeSO4, pH 2.5) or test compounds (dissolved in vehicle) only by oral gavage (p.o). The compounds are dosed at a volume of […]. Cohorts of 5-10 animals were established for each treatment condition.
At T=180 minutes after initial dosing the animals were stunned and decapitated with a guillotine. Trunk-blood was sampled in EDTA coated tubes after decapitation of the animal. The blood was centrifuged at 2200 G at 4° C. for 15 minutes and the plasma was collected and frozen at −80° C. The blood was aliquoted for Aβ ELISA and DMPK analysis. Immediately following sacrifice, the brain was extracted and split into 2 halves. The right hemibrains were snap frozen on dry ice and stored at −80° C. The left half was dissected; with the front forebrain taken for Aβ ELISA and the remainder used for DMPK analysis. These samples were also snap frozen on dry ice and stored at −80° C. until use for analysis.
The cortex samples were thawed slightly on wet ice before they were homogenized with a small volume dispersing instrument (T10 basic ULTRA-TURRAX®) which was set at speed 5 for approximately 5-7 sec. The tissue was processed in a 10 times volume of the weight, for example 100 mg of tissue was homogenized in 1000 μL of Homogenization buffer. Homogenization buffer: 50 ml Milli Q water+[…]+0.2% Diethylamin (DEA)+1 tablet of Complete Protease inhibitor cocktail+1 nM 4-(2-aminoethyl)benzenesulfonyl fluoride hydrochloride irreversible serine protease inhibitor (AEBSF).
After homogenization 450 μL aliquots of the samples are collected into a 1.5 ml Eppendorf tube and placed on wet ice, 0.5% NP-40 (50 ul) was added to all samples and then they were incubated on ice for 30 min. After which all samples were sonicated using an Ultrasonic homogenizer with 20 kHz homogeneous sound (SONOPLUS HD2070, Bandelin Electronic) 10 pulse set at 12-13% power to extract all the Aβ species. The samples were then centrifuged (Ole Dich 157 MPRF Micro centrifuge) at 20000 G for 20 minutes at 4° C. After centrifugation 285 μL of the supernatant was pipetted into 600 μL microtubes tubes and neutralized with 15 μL of 1M Tris-HCL buffer.
WAKO 294-62501 Human/Rat Abeta amyloid (40) kit was used for all ELISA analyses. 30 μL plasma samples or 30 μL of the cortex supernatants generated as described above were placed in 600 μL microtubes tubes on wet ice. To this 30 μL of 8M Urea (AppliChem A1049, 9025) are added to generate a 2-fold dilution. Both plasma and cortex supernatants are incubated on ice for 30 min. Standard rows were prepared from the standard peptide stock provided in the kit and standard diluent containing 1.6M Urea (200 μL 8M Urea+800 μL of standard diluent) and 0.8M Urea (400 μL 8M Urea+3600 μL Standard diluent). A serial 2-fold dilution of Aβ40 from 100 pmol/ml to 0 pmol/L was prepared for the assay.
After incubation with urea, all samples were further diluted by addition of 5 times standard diluent from the Kit. This was done by adding 240 μL Standard Diluent to 60 μL sample/urea mixture, which was then mixed well. 100 μL of each diluted sample was pipetted into designated wells of the ELISA plate in duplicates. The plate was then covered and incubated overnight at 4° C. The following day, the ELISA kit was brought to room temperature before use. The incubated plate was washed 5 times with the 20× washing solution diluted in Milli Q water. 100 μL HRP-conjugate was applied to each well, and the plate was covered and incubates at 4° C. for 1 hr. The wash was repeated again for 5 times. 100 μL 3,3′,5,5′-Tetramethylbenzidine (TMB) solution was applied to each well and the plate was covered and incubated in the dark at room temperature for 30 minutes. […]

T1 sequence (P56817 46-501): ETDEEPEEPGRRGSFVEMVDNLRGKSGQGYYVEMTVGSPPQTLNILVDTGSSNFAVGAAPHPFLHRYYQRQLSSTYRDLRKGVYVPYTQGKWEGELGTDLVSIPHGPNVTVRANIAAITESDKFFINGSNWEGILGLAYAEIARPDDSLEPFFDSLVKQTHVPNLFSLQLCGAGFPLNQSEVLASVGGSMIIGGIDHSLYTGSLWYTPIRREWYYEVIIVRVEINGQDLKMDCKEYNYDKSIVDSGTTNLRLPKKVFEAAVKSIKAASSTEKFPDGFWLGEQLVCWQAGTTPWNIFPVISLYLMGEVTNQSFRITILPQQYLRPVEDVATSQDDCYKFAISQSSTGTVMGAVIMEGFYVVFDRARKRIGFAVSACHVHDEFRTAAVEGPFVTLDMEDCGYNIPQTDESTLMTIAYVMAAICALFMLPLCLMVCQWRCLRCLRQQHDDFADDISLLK

pKi (BACE1 [1]): 7.85
inhibition at 10 µM (BACE1 [2]): 103%
SMILES: COc1cnc(C(=O)Nc2cc(F)c(F)c([C@@]3(CF)N=C(N)CCC3(F)F)c2)cn1 [Compound 11, (S)-N-(3-(6-amino-3,3-difluoro-2-(fluoromethyl)-2,3,4,5-tetrahydropyridin-2-yl)-4,5-difluorophenyl)-5-methoxypyrazine-2-carboxamide]
Aβ40 reduction (Aβ40; rat brain, 10 mg/kg p.o.): 43%
Aβ40 reduction (Aβ40; rat brain, 30 mg/kg p.o.): 50%
Aβ40 reduction (Aβ40; rat plasma, 10 mg/kg p.o.): 31%
Aβ40 reduction (Aβ40; rat plasma, 30 mg/kg p.o.): 37%
